Experimental data published in US20160015725A1, “METHODS OF CONTROLLING TUMOR BIOENERGETICS NETWORKS” (THE WISTAR INSTITUTE OF ANATOMY AND BIOLOGY, priority 2012, published 2016).

Tests used:
[1] = test system: BRAF V600E melanoma cells; assay: Melanoma cell viability by MTT, BRAF V600E; format: cell-based, human
Experimental: (§1) Various cell types were seeded in triplicate onto 96-well plates at 4×10^3 cells/well, treated with vehicle, Gamitrinib or 17-AAG (0-20 μM) for 12 h, and analyzed for changes in metabolic activity by an MTT assay. For determination of apoptosis, LN229 cells ([…]) were labeled for annexin V and propidium iodide (PI) (BD Biosciences), and analyzed by multiparametric flow cytometry (BD).

LN229 cells [2] = assay: Cell viability by MTT; format: cell-based, human; details: Gamitrinib combined with 2-DG vs each agent alone
Experimental: as §1

TRAMP mice prostate = assay: Immunohistochemistry of TRAMP prostate tissues; format: in vivo, mouse; details: PIN lesions
Experimental: The preclinical studies to test the efficacy and safety of Gamitrinib in a genetic mouse model of prostate cancer in immunocompetent TRAMP (Transgenic Adenocarcinoma of the Mouse Prostate) mice have been described (Kang et al., 2011). In this model, Gamitrinib was given systemically (5 mg/kg i.p. with the schedule 3 d on/2 d off) to TRAMP mice starting at 21.9 weeks of age (group 1) or 14.7 weeks of age (group 2), for 3 weeks or 5 weeks, respectively. In the control group, TRAMP mice of 24 weeks of age received vehicle. At the end of the experiment, animals in the vehicle or Gamitrinib groups were sacrificed and analyzed for localized and metastatic prostate cancer of adenocarcinoma or neuroendocrine histologic type (Kang et al., 2011).
For analysis of patient-derived or TRAMP tissues, slides were microwaved for 35 min in EDTA solution. Sections (4-μm thick) were cut from all TMA blocks and TRAMP-derived prostatic tumors and stained with a rabbit polyclonal antibody to Grp78 (1:1000) for 30 min at 22° C. IHC was performed using a Ventana BenchMark Ultra autostainer (Ventana Medical Systems), with the ultraView Universal DAB Detection Kit (Ventana) for detection of antibody reactivity. All slides were counterstained with hematoxylin Immunoreactivity for Grp78 was evaluated by two pathologists (S.F. and S.B.) and independently scored for cytoplasmic localization. When discrepancies in scoring occurred, a consensus interpretation was reached after re-examination. The percentage of immunoreactive epithelial cells was determined and assigned to one of the following four categories: 0, (0%); 1, (1%-9%); 2, (10%-49%) and 3, (50%-100%). The intensity of immunostaining was scored as absent (0), mild (1), moderate (2) or strong (3). In the case of TMA, the two parameters were multiplied to generate a weighted score for each case that ranged from 0 to 9. Cases with weighted score 0 were defined as negative. Among AdCa samples in the series under investigation, 17 cases were negative for Grp78 expression, whereas 0 cases of SCC were Grp78-negative. […]

mTORC1 = mTORC1 signaling in tumor cells, Western blotting; format: cell-based, human
PC3 cells = assay: ER stress luciferase-promoter reporter assay; format: cell-based, human; details: PC3, 20 h
Experimental: In another series of experiments, PC3 cells were transfected with control or Grp78-directed siRNA, and analyzed for cell viability after 24 h by an MTT assay. For promoter analysis, PC3 cells were plated in triplicate onto 48-well plates at 1.4×10^4 cells/well, and cotransfected with Firefly Luciferase-reporters for IRE1, ATF6, PERK or CHOP and a constitutive reporter (pTK-Renilla Luc) in a 10:1 ratio using X-tremeGENE reagent (Roche). After 24 h, cells were treated with vehicle, Gamitrinib, tunicamycin or 2-DG and analyzed after 20 h for Firefly and Renilla luciferase activity using a Dual Luciferase Reporter Assay System (Promega). Transfection of plasmid DNAs was carried out with lipofectamine 2000 (Invitrogen) according to published protocols. A PPIase-defective CypD H168Q mutant cDNA was generated by Quick-Change site-directed mutagenesis (Stratagene) using primers 5′-[…]-3′ (forward) and 5′-[…]-3′ (reverse) (mutated sequences are bolded). The inserted mutation (bolded) was confirmed by DNA sequencing, and cloned in a pcDNA3.0 expression vector (Invitrogen) for reconstitution experiments in CypD−/− MEFs.

LN229 cells [3] = assay: ROS production, H2-DCFA labeling; format: cell-based, human; details: cytotoxic or non-cytotoxic concentrations, various time intervals
WT BRAF melanoma cells = assay: AMPK and autophagy signaling in WT BRAF melanoma cells; format: cell-based, human
Excerpt: Human glioblastoma LN229, prostate adenocarcinoma PC3 or LNCaP cells, or normal NIH3T3 fibroblasts were obtained from the American Tissue Culture Collection (ATCC, Manassas, Va.), and maintained in culture according to the supplier's specifications. The following wild type (WT) BRAF N-Ras mutant melanoma cells WM852 and WM1366, and melanoma cells carrying a V600E activating mutation in the BRAF oncogene, 451Lu, Me11617 and WM983B were used in this study. WT or CypD knockout Mouse Embryonic Fibroblasts (MEFs, CypD−/−) were characterized earlier 40. In some experiments, CypD−/− MEFs were stably transfected with control plasmid, WT CypD or peptidyl prolyl isomerase (PPIase)-deficient H168Q CypD mutant cDNA, and analyzed for differential recruitment of HK-II to mitochondrial or cytosolic fractions.
For Western blotting, protein lysates were prepared from the different cell types in RIPA Buffer (150 mM NaCl, 1.0% Triton X-100, 0.5% sodium deoxycholate, 0.1% SDS, 50 mM Tris, pH 8.0) containing EDTA-free Protease Inhibitor Cocktail (Roche) and Phosphatase Inhibitor Cocktail 2 and 3 (Sigma Aldrich). Equal amounts of protein lysates were separated by SDS gel electrophoresis, transferred to PVDF membranes and incubated with primary antibodies of various specificities. Protein bands were detected by chemiluminescence.
Samples were imaged using a Leica TCS SP2 confocal microscope. For determination of autophagy, cells under the various conditions tested were harvested after 12 h, and analyzed with an antibody to […] (LC3) by Western blotting.

LN229 cells [4] = assay: Apoptosis by annexin V / PI flow cytometry; format: cell-based, human; details: HK-II silenced cells vs control transfectants
Experimental: as §1

**Q.** CO[C@H]1/C=C\C=C(/C)C(=O)NC2=CC(=O)C(NCCCCCC[P+](c3ccccc3)(c3ccccc3)c3ccccc3)=C(C[C@@H](C)C[C@H](OC)[C@H](O)[C@@H](C)/C=C(\C)[C@@H]1OC(N)=O)C2=O [Gamitrinib] was tested. Which IC50 [1] did it give?
**A.** 1950 ± 210 nM

**Q.** And the “tumor cell killing, combined with 2-DG” value (LN229 cells [2])?
**A.** increased tumor cell killing

**Q.** What about the GRP78 expression (TRAMP mice prostate) of the same compound?
**A.** upregulation of GRP78

**Q.** And the “autophagy, LC3 conversion” value (TRAMP mice prostate)?
**A.** induction of autophagy, i.e. LC3 conversion

**Q.** And the “phosphorylated AMPK expression” value (TRAMP mice prostate)?
**A.** increased expression of phosphorylated AMPK

**Q.** What about the “phosphorylation of mTOR, 4EBP1 and p70S6 (mTORC1)” value (mTORC1) of the same compound?
**A.** concentration dependent suppression of phosphorylation of mTOR, and its downstream kinases 4EBP1 and p70S6

**Q.** What about the “minimal CHOP promoter activity” value (PC3 cells) of the same compound?
**A.** transcriptionally induced

**Q.** And the “transcriptional activation of response elements of IRE-1, ATF-6 and PERK” value (PC3 cells)?
**A.** comparably induced transcriptional activation

**Q.** What about the “production of reactive oxygen species (ROS)” value (LN229 cells [3]) of the same compound?
**A.** had no effect on production of reactive oxygen species (ROS)

**Q.** What about the autophagy (WT BRAF melanoma cells; WT BRAF cells) of the same compound?
**A.** stimulated autophagy

**Q.** And the AMPK phosphorylation (WT BRAF melanoma cells; WT BRAF melanoma cells)?
**A.** induced AMPK phosphorylation

**Q.** And the “Annexin V labeling” value (LN229 cells [4])?
**A.** increased Annexin V labeling
